From patent US20260130933A1, “PHARMACEUTICAL COMPOSITION FOR PREVENTION OR TREATMENT OF NEPHROPATHY AND/OR DIABETES MELLITUS, COMPRISING ENAVOGLIFLOZIN” (DAEWOONG PHARMACEUTICAL CO., LTD., priority 2022, published 2026)

Test: Example 2: phase 3 trial, enavogliflozin 0.3 mg vs dapagliflozin 10 mg once a day for 24 weeks added to metformin in patients with type 2 diabetes (same efficacy, exploratory and safety endpoints)
Format: in vivo, human
Method: Subjects who met the inclusion/exclusion criteria were administered a placebo of the clinical trial drug under single-blind (subject blinding) conditions during a 2-week run-in period while continuing to receive metformin. […] The randomized subjects were administered two tablets of the clinical trial drug for each administration group once a day, and then visited the institution at weeks 6, 12, 18, and 24 during the 24-week administration period to conduct efficacy and safety evaluations.
• 1. Change in HbA1c at week 24 after administration of clinical trial drug compared to Visit 2 (randomization)
• 1. Change in HbA1c at each time point of weeks 6, 12, and 18 after administration of clinical trial drug compared to Visit 2 (randomization) • 2. Change in FPG at each time point of weeks 6, 12, 18, and 24 after administration of clinical trial drug compared to Visit 2 (randomization) • 3. Proportion of subjects achieving HbA1c<7% at each time point of weeks 6, 12, 18, and 24 after administration of clinical trial drug • 4. Proportion of subjects achieving HbA1c<6.5% at each time point of weeks 6, 12, 18, and 24 after administration of clinical trial drug • 5. Proportion of subjects achieving therapeutic response (HbA1c change (HbA1c at Visit 2-HbA1c at each evaluation time point)>0.5% or HbA1c<7% at each evaluation time point compared to Visit 2 (randomization)) at each time point of weeks 6, 12, 18 and 24 after administration of clinical trial drug
• 1. Change in fasting c-peptide at each time point of weeks 6, 12, 18, and 24 after administration of clinical trial drug compared to Visit 2 (randomization) • 2. Change in body weight at each time point of weeks 6, 12, 18, and 24 after administration of clinical trial drug compared to Visit 2 (randomization) • 3. Change in fasting lipid concentration (total cholesterol, LDL-C, HDL-C, and triglycerides) at each time point of weeks 6, 12, 18, and 24 after administration of clinical trial drug compared to Visit 2 (randomization) • 4. Changes in systolic or diastolic blood pressure at each time point of weeks 6, 12, 18, and 24 after administration of clinical trial drug compared to Visit 2 (randomization) • 5. Changes in β-cell function and insulin resistance measured by HOMA-β and HOMA-IR at each time point of weeks 6, 12, 18, and 24 after administration of clinical trial drug compared to Visit 2 (randomization) • 6. Changes in renal function-related indicators (UACR, UGCR) measured by UACR at each time point of weeks 6, 12, 18, and 24 after administration of clinical trial drug compared to Visit 2 (randomization) • 7. Changes in obesity-related indicators (adiponectin, leptin) at each time point of weeks 6, 12, 18, and 24 after administration of clinical trial drug compared to Visit 2 (randomization)

[1] = week 6, per-protocol set, enavogliflozin 0.3 mg, dapagliflozin 10 mg
[2] = week 12, modified per-protocol set 1, enavogliflozin 0.3 mg, dapagliflozin 10 mg
[3] = week 12, per-protocol set, enavogliflozin 0.3 mg vs dapagliflozin 10 mg
[4] = week 12, per-protocol set, enavogliflozin 0.3 mg, dapagliflozin 10 mg

For `OC[C@H]1O[C@@H](c2cc(Cc3ccc(C4CC4)cc3)c(Cl)c3c2CCO3)[C@H](O)[C@@H](O)[C@@H]1O` [Enavogliflozin, (2S,3R,4R,5S,6R)-2-(7-chloro-6 (4-cyclopropylbenzyl)-2,3-dihydrobenzofuran-4-yl)-6-(hydroxymethyl)tetrahydro-2H-pyran-3,4,5-triol], the “Change from baseline in fasting c-peptide, ANCOVA LS mean (SE)” value [1] was −0.07(0.02) ng/mL, the “Change from baseline in fasting c-peptide, Mean (SD)” value [1] was −0.06(0.19) ng/mL and the “Change from baseline in fasting c-peptide, Median” value [1] was -0.03 ng/mL. The “FPG, Mean (SD)” value [1] was 118.44 mg/dL, the “FPG, Median” value [1] was 115.00 mg/dL and the “HbA1c, Mean (SD)” value [1] was 7.13%. The “HbA1c, Median” value [1] was 6.98%, the “Subjects achieving HbA1c target of <6.5%, (%)” value [1] was “(12.63) %” and the “Subjects achieving therapeutic glycemic response, (%)” value [1] was “(78.95) %”. The “body weight, Mean (SD)” value [1] was 68.61(11.27) kg, the “body weight, Median” value [1] was 67.30 kg and the “fasting c-peptide, Mean (SD)” value [1] was 0.66(0.24) ng/mL. The “fasting c-peptide, Median” value [1] was 0.60 ng/mL, the “FPG change from baseline, LS mean (SE)” value (week 12) was −29.70(1.96) mg/dL and the “HOMA-IR change from baseline, LS mean (SE)” value (week 12) was −1.58(0.17). The “HOMA-β change from baseline, LS mean (SE)” value (week 12) was 5.57(3.08), the “HbA1c change from baseline, LS mean (SE)” value (week 12) was −0.83(0.06) % p and the “LDL-C change from baseline, LS mean (SE)” value (week 12) was 1.86(1.68) mg/dL. The “Subjects achieving HbA1c target of <7%” value (week 12) was “(68.09) %”, the “Subjects achieving HbA1c<6.5%” value (week 12) was 15.96% and the “Subjects achieving therapeutic response (HbA1c change >0.5% or HbA1c<7%)” value (week 12) was 88.30%. For the same molecule, the “UACR change from baseline, LS mean (SE)” value (week 12) was −21.65(7.38) g/kg, the “UGCR change from baseline, LS mean (SE)” value (week 12) was 64.70(2.58) mg/mg and the “diastolic blood pressure change from baseline, LS mean (SE)” value (week 12) was −4.19(0.79) mmHg. For the same molecule, the “fasting c-peptide change from baseline, LS mean (SE)” value (week 12) was −0.08(0.02) ng/ml, the “leptin change from baseline, LS mean (SE)” value (week 12) was −2.64(0.49) ng/mL and the “FPG change from baseline, LS mean difference” value (week 12, vs dapagliflozin) was 0.42 mg/dL. The “HDL-C change from baseline, LS mean difference” value (week 12, vs dapagliflozin) was 0.06 mg/dL, the “HOMA-IR change from baseline, LS mean difference” value (week 12, vs dapagliflozin) was 0.02 and the “HOMA-β change from baseline, LS mean difference” value (week 12, vs dapagliflozin) was −3.17. The “HbA1c change from baseline, LS mean difference” value (week 12, vs dapagliflozin) was −0.03 % p, the “LDL-C change from baseline, LS mean difference” value (week 12, vs dapagliflozin) was 1.30 mg/dL and the “Odds ratio for achieving HbA1c<6.5%” value (week 12, vs dapagliflozin) was 0.51. The “Odds ratio for achieving HbA1c<7%” value (week 12, vs dapagliflozin) was 1.21, the “Odds ratio for achieving therapeutic response” value (week 12, vs dapagliflozin) was 2.04 and the “UACR change from baseline, LS mean difference” value (week 12, vs dapagliflozin) was −18.27. For the same molecule, the “UGCR change from baseline, LS mean difference” value (week 12, vs dapagliflozin) was 19.57 mg/mg, the “body weight change from baseline, LS mean difference” value (week 12, vs dapagliflozin) was -0.19 kg and the “diastolic blood pressure change from baseline, LS mean difference” value (week 12, vs dapagliflozin) was 0.16 mmHg. The “fasting c-peptide change from baseline, LS mean difference” value (week 12, vs dapagliflozin) was 0.01 ng/mL, the “leptin change from baseline, LS mean difference” value (week 12, vs dapagliflozin) was 0.07 ng/mL and the “systolic blood pressure change from baseline, LS mean difference” value (week 12, vs dapagliflozin) was 0.26 mmHg. For the same molecule, the “total cholesterol change from baseline, LS mean difference” value (week 12, vs dapagliflozin) was 3.01 mg/dL, the “triglyceride change from baseline, LS mean difference” value (week 12, vs dapagliflozin) was 2.57 mg/dL and the “Subjects achieving HbA1c target of <7%” value (week 12, listed as enavogliflozin) was 68.09%. For the same molecule, the “Change from baseline in total cholesterol, ANCOVA LS mean difference” value (week 12, modified per-protocol set 1, enavogliflozin 0.3 mg vs dapagliflozin 10 mg) was 3.01 mg/dL, the “Change from baseline in Total cholesterol, ANCOVA LS mean (SE)” value [2] was 7.26(1.98) mg/dL and the “Change from baseline in Total cholesterol, Mean (SD)” value [2] was 5.74(18.70) mg/dL. For the same molecule, the “Change from baseline in total cholesterol, Median” value [2] was 6.00 mg/dL, the “fasting Total cholesterol, Mean (SD)” value [2] was 157.39(31.50) mg/dL and the “fasting Total cholesterol, Median” value [2] was 150.00 mg/dL. The “Change from baseline in FPG, ANCOVA LS mean difference” value [3] was 0.42 mg/dL, the “Change from baseline in HbA1c, ANCOVA LS mean difference” value [3] was −0.03 % p and the “Change from baseline in body weight, ANCOVA LS mean difference” value [3] was -0.19 kg. The “Change from baseline in fasting c-peptide, ANCOVA LS mean difference” value [3] was 0.01 ng/mL, the “Odds ratio for achieving HbA1c target of <6.5%, logistic regression model” value [3] was 0.51 and the “Odds ratio for achieving therapeutic glycemic response, logistic regression model” value [3] was 2.04. The “Change from baseline in FPG, ANCOVA LS mean (SE)” value [4] was -29.70 mg/dL, the “Change from baseline in FPG, Mean (SD)” value [4] was -27.74 mg/dL and the “Change from baseline in FPG, Median” value [4] was -26.00 mg/dL. For the same molecule, the “Change from baseline in HbA1c, ANCOVA LS mean (SE)” value [4] was −0.83 % p, the “Change from baseline in HbA1c, Mean (SD)” value [4] was −0.77 % p and the “Change from baseline in HbA1c, Median” value [4] was −0.65 % p. For the same molecule, the “Change from baseline in body weight, ANCOVA LS mean (SE)” value [4] was −2.81(0.23) kg, the “Change from baseline in body weight, Mean (SD)” value [4] was −2.78(2.48) kg and the “Change from baseline in body weight, Median” value [4] was -2.75 kg. For the same molecule, the “Change from baseline in fasting c-peptide, ANCOVA LS mean (SE)” value [4] was −0.08(0.02) ng/mL, the “Change from baseline in fasting c-peptide, Mean (SD)” value [4] was −0.07(0.21) ng/mL and the “Change from baseline in fasting c-peptide, Median” value [4] was -0.07 ng/mL. The “FPG, Mean (SD)” value [4] was 117.00 mg/dL.
